Results taken from patent US4409207A, “Derivatives of clavulanic acid, a process for their preparation and their use” (Beecham Group Limited, priority 1978, dated 1983).
Values belong to the molecule of their own block, whether it stands above or below them.

Assays:
[1] = test system: Staph. Russell; assay: standard MIC test of ampicillin with synergist, Staph. Russell; format: cell-based
Description: (§1) The synergist referred to hereinafter is sodium 9-O-carboxamidomethylclavulanate.

[2] = test system: E. coli JT 39 infection; assay: E. coli JT 39 infection in mice, CD50 of amoxycillin with subcutaneous synergist; format: in vivo
[3] = test system: E. Coli JT 39; assay: standard MIC test of ampicillin with synergist, E. Coli JT 39; format: cell-based
Description: as §1

[4] = toxic effects during testing at therapeutic doses in animals; format: in vivo
[5] = test system: Kleb. E 70; assay: standard MIC test of ampicillin with synergist, Kleb. E 70; format: cell-based
Description: as §1

[6] = test system: Staph. Russell, Kleb. E 70, Proteus C889, E. Coli JT 39; assay: standard MIC tests, synergy statement; format: cell-based; conditions: with ampicillin
Description: as §1

[7] = test system: Proteus C889; assay: standard MIC test of ampicillin with synergist, Proteus C889; format: cell-based; conditions: 0 μg/ml synergist (ampicillin alone)
Description: as §1

[8] = synergist alone, obtained in separate test
[9] = 0 μg/ml synergist (ampicillin alone)

SMILES: NC(=O)COC/C=C1\O[C@@H]2CC(=O)N2[C@H]1C(=O)O [Example 2, Sodium 9-O-carboxamidomethylclavulanate]
MIC [1, 8]: 31 µg/mL
effect of the compound alone on infection ([2]; compound of this example alone at 2 mg/kg×2): no effect
MIC ([3]; Escherichia coli, synergist alone, obtained in separate test): 31 µg/mL
overt toxic symptoms ([4]; in vivo): No overt toxic symptoms were observed
animal deaths due to toxic effects ([4]; therapeutic doses): did not cause animal deaths due to toxic effects
MIC [5, 8]: 31 µg/mL
synergy in standard MIC tests [6]: demonstrated synergy

MIC of Ampicillin [1, 9]: > 32 µg/mL
MIC of Ampicillin [7]: > 32 µg/mL
MIC of Ampicillin [3, 9]: > 32 µg/mL
MIC of Ampicillin [5, 9]: > 32 µg/mL
SMILES: CC1(C)S[C@@H]2[C@H](NC(=O)[C@H](N)c3ccccc3)C(=O)N2[C@H]1C(=O)O [Ampicillin, reference compound]

SMILES: CC1(C)S[C@@H]2[C@H](NC(=O)[C@H](N)c3ccc(O)cc3)C(=O)N2[C@H]1C(=O)O [amoxycillin, reference compound]
CD50 of amoxycillin ([2]; amoxycillin alone): greater than 500 mg/kg×2
